In patent US20260256830A1, “PERITONEAL DIALYSIS FLUID” (ZYTOPROTEC FLEXIBLE KAPITALGESELLSCHAFT, priority 2022, published 2026):
Peptide text beside a SMILES is read from it.

Experiment: Long-term stability of AGD in alkaline solution (amino acid analysis)
Assay type: physicochemical
Conditions: 52 weeks; for AGD, % of original amount after storage: 25° C./60% rH
Method: The long-term stability tests of AGD in an alkaline solution according to the present invention have been performed. […] The pH of each sample was adjusted with 1 M NaOH. Aliquots of each sample were prepared under controlled conditions and stored under the defined conditions at 25° C./60% rH. Sterilization was performed under following conditions: The stability of AGD has been investigated by AS analysis. Analysis was performed by […] amino acid analysis with JEX and post column derivatization with Ninhydrine.

- decrease of the AGD, of original amount (both samples (pH 7.4 and 7.8), storage at 25° C./60% rH): less than 5%
- AGD, % of original amount after storage (sample with pH-value of 7.4): 98%
- AGD, % of original amount after storage (sample with pH-value of 7.8): > 95%
SMILES: C[C@H](N)C(=O)N[C@@H](CCC(N)=O)C(=O)O [AGD, L-alanyl-L-glutamine] (H-Ala-Gln-OH)
